Like-named read-outs stand apart in the source and are kept apart here.
Assays:
[1] = test system: Citrus Canker (Xanthomonas citri pv. Citri); experiment: Field trial, citrus canker (Ex. 117); conditions: for % Increase in yield over control / Yield (t/ha): citrus; for Citrus Canker severity, Pre spray: pre spray (baseline)
[2] = test system: Pomegranate Bacterial Leaf Blight (BLB-Xanthomonas axonopodis pv Punicae); experiment: Field trial, pomegranate bacterial leaf blight (Ex. 99); conditions: for % Increase in yield over control / Yield: pomegranate
[3] = test system: Cotton Bacterial Leaf Blight (BLB-Xanthomonas citri pv. Malvacearum); experiment: Field trial, cotton bacterial leaf blight, Embodiment 12 (Ex. 116); conditions: for % Increase over control: cotton yield; for % Disease reduction over Control / Yield: cotton
Alternaria alternata [4] = experiment: In vitro poisoned food technique against fungus (Ex. 20); format: cell-based
Alternaria alternata [5] = experiment: Alternaria leaf spot/blight on inoculated tomato plants (Ex. 28); format: in vivo; conditions: in vivo
tomato seedlings = experiment: Response of tomato plants, greenhouse growth (Ex. 30); format: in vivo; conditions: tomato seedlings, dose 1 ml/gm/lit
chili seedlings = experiment: Response of chili plants, greenhouse growth (Ex. 31); format: in vivo; conditions: chili seedlings, dose 1 ml/gm/lit
Aphid [6] = conditions: in vivo
Helicoverpa armigera = conditions: in vivo
Spodoptera litura [7] = conditions: in vivo
Spodoptera litura [8] = conditions: in vivo; remark: listed apart in the source
Thrips [9] = conditions: in vivo
[10] = cited from earlier work
Spodoptera litura [11] = experiment: whole plant or invertebrate; conditions: 72 h
Thrips [12] = experiment: whole plant or invertebrate; conditions: in Gossypium hirsutum, 48 h
Aphid [13] = experiment: whole plant or invertebrate; conditions: 48 h
[14] = Table 13, descriptive, no test described
[15] = read-out: % Corrected Mortality at 48 Hrs.
[16] = read-out: % Mortality at 48 Hrs.

O=[N+]([O-])C(Br)(CO)CO [Bronopol]
% Disease reduction over Control ([1]; dose 500 ppm): 72.62%
Citrus Canker severity, 1st spray 5rd Day ([1]; dose 500 ppm): 38.48
Citrus Canker severity, 1st spray 10th day ([1]; dose 500 ppm): 33.15
Citrus Canker severity, 2nd spray 5rd day ([1]; dose 500 ppm): 27.45
Citrus Canker severity, 2nd spray 10th Day ([1]; dose 500 ppm): 22.45
% Increase in yield over control ([1]; dose 500 ppm): 3.61%
Yield (t/ha) ([1]; dose 500 ppm): 8.30 t/ha
Citrus Canker severity, Pre spray ([1]; dose 500 ppm): 41.75
% Disease reduction over Control ([2]; dose 500 ppm): 66.68%
BLB severity 1st spray 3rd Day ([2]; dose 500 ppm): 36.68
BLB severity 1st spray 5th day ([2]; dose 500 ppm): 32.15
BLB severity 2nd spray 3rd Day ([2]; dose 500 ppm): 28.75
BLB severity 2nd spray 5th Day ([2]; dose 500 ppm): 26.65
% Increase in yield over control ([2]; dose 500 ppm): 10.36%
Yield ([2]; dose 500 ppm): 10.55 t/ha
cotton BLB severity ([3]; 1st spray, 5th Day, dose 500 ppm): 31.33
cotton BLB severity ([3]; 1st spray, 10th Day, dose 500 ppm): 27.10
cotton BLB severity ([3]; 2nd spray, 5th Day, dose 500 ppm): 25.60
cotton BLB severity ([3]; 2nd spray, 10th Day, dose 500 ppm): 23.60
% Increase over control ([3]; dose 500 ppm): 13.79%
% Disease reduction over Control ([3]; dose 500 ppm): 66.38%
Yield ([3]; dose 500 ppm): 20.30 qtl/ha

COc1cc(CNC(=O)CCCC/C=C/C(C)C)ccc1O [Capsaicin]
inhibition of growth at 1 mL or g/L (Alternaria alternata [4]; […]): 42.6%
Mean colony Diameter (mm) (Alternaria alternata [4]; poisoned food technique, PDA medium, dose 1 ml/gm/lit., after seven days): 50.50 mm
% Disease reduction over Control (Alternaria alternata [5]): 51.24%
Plant Height 5th Day (tomato seedlings; 5th day after application): 7.11 cm
Stem Girth 5th Day (tomato seedlings; 5th day after application): 1.92 mm
Plant Height 10th Day (tomato seedlings; 10th day after application): 7.86 cm
Stem Girth 10th Day (tomato seedlings; 10th day after application): 2.01 mm
Plant Height % Increase over pre on 10th Day (tomato seedlings; 10th day): 29.28%
Stem Girth % Increase over pre on 10th Day (tomato seedlings; 10th day): 58.60%
CCI 5th Day (tomato seedlings; 5th day after application): 14.66
CCI % Increase over pre on 10th Day (tomato seedlings; 10th day): 21.99%
Root Length (cm) 10th Day (tomato seedlings; 10th day): 3.95 cm
CCI 10th Day (tomato seedlings; 10th day after application): 15.42
Root Length % Increase over control (tomato seedlings; 10th day, vs water control): 18.74%
CCI 5th Day (chili seedlings; 5th day after application): 12.21
Plant Height (cm) 5th Day (chili seedlings; 5th day after application): 6.30 cm
CCI % Increase over pre on 10th Day (chili seedlings; 10th day): 46.96%
Plant Height % Increase over pre on 10th Day (chili seedlings; 10th day): 43.26%
Root Lenght (cm) 10th Day (chili seedlings; 10th day): 2.99 cm
Stem Girth % Increase over pre on 10th Day (chili seedlings; 10th day): 43.31%
CCI 10th Day (chili seedlings; 10th day after application): 13.52
Plant Height (cm) 10th Day (chili seedlings; 10th day after application): 6.59 cm
Root Lenght % Increase over control (chili seedlings; 10th day, vs water control): 9.09%
% Corrected Mortality at 48 Hrs. (Aphid [6]): 57.14%
Total No. of dead insect at 72 Hrs. (Helicoverpa armigera): 4.50
Total No. of dead insect at 72 Hrs. (Spodoptera litura [7]): 4.25
% Corrected Mortality at 72 Hrs. (Spodoptera litura [8]): 44.74%
% Mortality at 72 Hrs. (Spodoptera litura [8]): 47.50%
% Corrected Mortality at 48 Hrs. (Thrips [9]): 55.56%
% Mortality at 48 Hrs. (Thrips [9]): 60.00%
Acaricidal Activity - Mode of action [10, 14]: Acts as a mite feeding
Antifungal Activity - Mode of action [10, 14]: Inhibits the hyphae
Antioxidant Activity - Mode of action [10, 14]: Showed antioxidant
Bactericidal Activity - Mode of action [10, 14]: Inhibition of bacterial
Insecticidal Activities - Mode of action [10, 14]: Fumigant and larvicidal
Virucidal Activity - Mode of action [10, 14]: Inhibited viral replication
Phytotonic Effect ([10]; Table 13, effect on plants, descriptive): Increase
mortality at 1 mL or g/L (Spodoptera litura [11]; read-out: % Corrected Mortality at 72 Hrs.): 39.5%
mortality at 1 mL or g/L (Spodoptera litura [11]; read-out: % Mortality at 72 Hrs.): 42.5%
mortality at 1 mL or g/L (Thrips [12]; [15]): 57.1%
mortality at 1 mL or g/L (Thrips [12]; [16]): 62.5%
mortality at 1 mL or g/L (Aphid [13]; [15]): 55.9%
mortality at 1 mL or g/L (Aphid [13]; [16]): 62.5%

[Cu+2].[OH-].[OH-] [Copper Hydroxide]
% Disease reduction over Control ([1]; dose 0.30%): 70.60%
Citrus Canker severity, 1st spray 5rd Day ([1]; dose 0.30%): 37.65
Citrus Canker severity, 1st spray 10th day ([1]; dose 0.30%): 33.15
Citrus Canker severity, 2nd spray 5rd day ([1]; dose 0.30%): 28.10
Citrus Canker severity, 2nd spray 10th Day ([1]; dose 0.30%): 24.10
% Increase in yield over control ([1]; dose 0.30%): 13.98%
Yield (t/ha) ([1]; dose 0.30%): 9.30 t/ha
Citrus Canker severity, Pre spray ([1]; dose 0.30%): 41.45
% Disease reduction over Control ([2]; dose 0.30%): 61.56%
BLB severity 1st spray 3rd Day ([2]; dose 0.30%): 35.45
BLB severity 1st spray 5th day ([2]; dose 0.30%): 33.15
BLB severity 2nd spray 3rd Day ([2]; dose 0.30%): 31.2
BLB severity 2nd spray 5th Day ([2]; dose 0.30%): 30.75
% Increase in yield over control ([2]; dose 0.30%): 16.42%
Yield ([2]; dose 0.30%): 11.13 t/ha
cotton BLB severity ([3]; 1st spray, 5th Day, dose 0.30%): 31.00
cotton BLB severity ([3]; 1st spray, 10th Day, dose 0.30%): 29.75
cotton BLB severity ([3]; 2nd spray, 5th Day, dose 0.30%): 27.45
cotton BLB severity ([3]; 2nd spray, 10th Day, dose 0.30%): 26.45
% Increase over control ([3]; dose 0.30%): 7.89%
% Disease reduction over Control ([3]; dose 0.30%): 62.32%
Yield ([3]; dose 0.30%): 19.00 qtl/ha

[Cl-].[Cu+2].[Cu+2].[OH-].[OH-].[OH-] [Copper oxychloride]
% Disease reduction over Control ([2]; dose 0.25%): 67.92%
BLB severity 1st spray 3rd Day ([2]; dose 0.25%): 36.65
BLB severity 1st spray 5th day ([2]; dose 0.25%): 30.15
BLB severity 2nd spray 3rd Day ([2]; dose 0.25%): 26.14
BLB severity 2nd spray 5th Day ([2]; dose 0.25%): 25.66
% Increase in yield over control ([2]; dose 0.25%): 12.45%
Yield ([2]; dose 0.25%): 10.75 t/ha
cotton BLB severity ([3]; 1st spray, 5th Day, dose 0.25%): 30.00
cotton BLB severity ([3]; 1st spray, 10th Day, dose 0.25%): 28.45
cotton BLB severity ([3]; 2nd spray, 5th Day, dose 0.25%): 23.65
cotton BLB severity ([3]; 2nd spray, 10th Day, dose 0.25%): 21.36
% Increase over control ([3]; dose 0.25%): 5.41%
% Disease reduction over Control ([3]; dose 0.25%): 69.57%
Yield ([3]; dose 0.25%): 18.50 qtl/ha
